# Data reported in article PMC12764842 (Acta Pharmacologica Sinica, 2025).
# System: LCMV
# Parameters: species or system BALB/c mice
# Conditions: mouse, in vivo
Compound,Viral copies in the liver,Body weight decrease of LCMV-challenged mice
"O=C(O)C[C@@H]1C(=O)O[C@H]2[C@H](OC(=O)c3cc(O)c(O)c(O)c3)[C@@H](OC(=O)c3cc(O)c(O)c4c3[C@H]1[C@H](O)C(=O)O4)[C@H](OC(=O)c1cc(O)c(O)c(O)c1)O[C@@H]2COC(=O)c1cc(O)c(O)c(O)c1 [Chebullinic acid, chebulinic acid]",no effect,
"NC(=O)c1nc(F)c[nH]c1=O [T-705, favipiravir, reference compound]",significantly reduced,decrease was halted
O=C1O[C@H]2[C@@H]3OC(=O)c4cc(O)c(O)c(O)c4-c4c(O)c(O)c5oc(=O)c6c(c(O)c(O)c7oc(=O)c4c5c76)-c4c(cc(O)c(O)c4O)C(=O)OC[C@H]3OC(O)[C@@H]2OC(=O)c2cc(O)c(O)c(O)c2-c2c1cc(O)c(O)c2O (mixture of isomers) [Punicalagin],no effect,
"O=C(/C=C/c1ccc(O)c(O)c1/C=C/c1ccc(O)c(O)c1)O[C@H](Cc1ccc(O)c(O)c1)C(=O)O [Salvianolic acid A, salvianolic acid A]",significantly reduced,
